Test results: patent US10322165B2, “TIFA antagonists and their use for treating diseases” (ACADEMIA SINICA, priority 2017, dated 2019)

Legend:
[1] = system: acute lymphoblastic leukemia (ALL) line Jurkat and CML line K562; assay: WST-1 viability assay, proliferation of ALL and CML lines; type: cell-based
Protocol: (§1) To silence specific genes, 6×10^5293T cells or 10^6 suspension cells were transfected with 30 pmol (293T cells) or 50 pmol (suspension cells) of indicated siRNA supplemented with 9 or 15 μL of Lipofectamine RNAiMAX (Invitrogen) in the presence of Opti-MEM (Invitrogen) according to the manufacturer's instruction. Six hours after primary transfection, cells were incubated with the regular medium for 24 h, and the secondary siRNA transfection was performed with the same protocol. Cells or conditional media were collected after 72 h of incubation.
(§2) A total of 10^5 suspension cells under indicated condition were seeded per well in 96-well plates and cell viability was analyzed at the indicated time point post treatment.

[2] = system: AML lines (HL-60, KG-1, THP-1, U937); assay: WST-1 based survival test, IC50 of chemo drugs in AML lines; type: cell-based; conditions: all four tested AML lines; siTIFA vs control siRNA
[3] = system: U937 cells; assay: Cytokine antibody array and ELISA of secreted cytokines; type: cell-based; conditions: 10 μM cytarabine, conditioned media
Protocol: Condition media from equal numbers of cultured U937 cells were collected at 72 h post indicated treatments and assessed by the Human Cytokine Array C1 according to the manufacturer's instruction (AAH-CYT-1, RayBiotech). Data were acquired using the ImageJ software and normalized to the positive controls. When indicated, the amounts of secreted cytokines and chemokines in the conditional mediums were determined by the enzyme-linked immunosorbent assay (ELISA) test kit following the manufacturer's instructions (R&D Systems). The absorbances of triplicated samples were read by SpectraMax Paradigm Plate Reader (Molecular Devices).

[4] = system: Jurkat (leukaemia cells); assay: WST-1 cytotoxicity of anti-cancer treatments with or without TIFA silencing; conditions: 4th day, Sorafenib 5 μM, Cisplatin 5 μM, Etoposide 10 μM, IR 5Gy
Protocol: (§3) For transient transfection of 293T cells, 6×10^5 cells were transfected with 2 μg of indicated plasmid DNA using Jet-PEI (Polyplus Transfection) for 48 h (pCDNA3.1 vector, HA-tagged TIFA, and pNF-κB-Luc) or 24 h (Flag-tagged Aurora A) according to the manufacturer's instruction. For transient transfection of U937 cells, 10^6 suspension cells were transfected with 3 μg of the pNF-κB-Luc plasmid DNA using Lipofectamine 2000 (Invitrogen) for 48 h according to the manufacturer's instruction. To silence specific genes, 6×10^5293T cells or 10^6 suspension cells were transfected with 30 pmol (293T cells) or 50 pmol (suspension cells) of indicated siRNA supplemented with 9 or 15 μL of Lipofectamine RNAiMAX (Invitrogen) in the presence of Opti-MEM (Invitrogen) according to the manufacturer's instruction. Six hours after primary transfection, cells were incubated with the regular medium for 24 h, and the secondary siRNA transfection was performed with the same protocol. Cells or conditional media were collected after 72 h of incubation.
as §2
(§4) Cytotoxicity of cells at the 4th day was normalized to treatment without TIFA silencing and presented.

[5] = system: MDA-MB-231 (breast cancer cells); assay: as above; type: cell-based; conditions: 4th day, Sorafenib 5 μM, Cisplatin 5 μM, Etoposide 10 μM, IR 5Gy
Protocol: as §3, §2, §4

[6] = system: H446 (lung cancer cells); assay: as above; conditions: 4th day, Sorafenib 5 μM, Cisplatin 5 μM, Etoposide 10 μM, IR 5Gy
Protocol: as §3, §2, §4

[7] = system: U2OS (osteosarcoma cells); assay: as above; conditions: 4th day, Sorafenib 5 μM, Cisplatin 5 μM, Etoposide 10 μM, IR 5Gy
Protocol: as §3, §2, §4

[8] = system: K562 (leukaemia cells); assay: as above; conditions: 4th day, Sorafenib 5 μM, Cisplatin 5 μM, Etoposide 10 μM, IR 5Gy
Protocol: as §3, §2, §4

[9] = system: MCF-7 (breast cancer cells); assay: as above; type: cell-based; conditions: 4th day, Sorafenib 5 μM, Cisplatin 5 μM, Etoposide 10 μM, IR 5Gy
Protocol: as §3, §2, §4

[10] = system: A549 (lung cancer cells); assay: as above; conditions: 4th day, Sorafenib 5 μM, Cisplatin 5 μM, Etoposide 10 μM, IR 5Gy
Protocol: as §3, §2, §4

[11] = system: HepG2 (liver cancer cells); assay: as above; conditions: 4th day, Sorafenib 5 μM, Cisplatin 5 μM, Etoposide 10 μM, IR 5Gy
Protocol: as §3, §2, §4

[12] = system: THP-1 (leukaemia cells); assay: as above; conditions: 4th day, Sorafenib 5 μM, Cisplatin 5 μM, Etoposide 10 μM, IR 5Gy
Protocol: as §3, §2, §4

[13] = system: NTera2 (testicular embryonic carcinoma); assay: as above; type: cell-based; conditions: 4th day, Sorafenib 5 μM, Cisplatin 5 μM, Etoposide 10 μM, IR 5Gy
Protocol: as §3, §2, §4

[14] = system: J5 (liver cancer cells); assay: as above; type: cell-based; conditions: 4th day, Sorafenib 5 μM, Cisplatin 5 μM, Etoposide 10 μM, IR 5Gy
Protocol: as §3, §2, §4

[15] = system: HeLa (cervical cancer cells); assay: as above; conditions: 4th day, Sorafenib 5 μM, Cisplatin 5 μM, Etoposide 10 μM, IR 5Gy
Protocol: as §3, §2, §4

[16] = system: U937 cells; assay: WST-1 viability of cytarabine-treated U937 cells; type: cell-based; conditions: 5 μg/mL etanercept, 50 nM bortezomib, or 1 μM ABT-263 together with 10 μM cytarabine
Protocol: as §2

[17] = system: AML cell lines HL-60, KG-1, THP-1, and U937; assay: WST-1 viability assay, growth of AML lines; type: cell-based; conditions: WST-1, time course after TIFA silencing
Protocol: as §1, §2

[18] = system: NF-κB; assay: Luciferase reporter assay and western blot for NF-κB activity; type: cell-based; conditions: for TNF-α-dependent NF-κB activation and elevations of NF-κB signaling factors: U937 cells stably expressing the fragment, 10 ng/mL TNF-α for 30 min
Protocol: After 5 repeated freeze-thaw cycles, cell extracts were cleared by centrifugation at 4° C. Cell extracts were quantified using Bradford assay, and equal amounts of soluble proteins were mixed with SDS sample buffer, boiled, separated by SDS-PAGE, and blotted onto PVDF membranes (Millipore). Membranes were then blocked for 1 h with 5% dry milk in PBST (PBS supplemented with 0.1% Tween-20) buffer and incubated for overnight at 4° C. with primary antibody diluted in PBST containing 1% bovine serum albumin (Sigma). After three washes with PBST, membranes were incubated with HRP-conjugated anti-mouse or anti-rabbit IgG. […] All western blot analyses were performed independently at least three times except that of primary PBMCs.
Luciferase-based NF-κB reporter assay was conducted as previously described (20). A total of 6×10^5 293T or 10^6 suspension U937 Cells in one well of 6-well plates with indicated conditions were transiently transfected with 2 μg of pNF-κB-Luc reporter plasmid for 48 h before harvest. Cells were treated with 10 ng/mL TNF-α (R&D Systems) for 30 min and lysed with 1× passive lysis buffer (Promega). 100 μg of cell lysates was dispensed into a well of 96-well plate, followed by addition of 100 μL of luciferase assay buffer LARII (Promega) and 100 μL of Stop & Glo reagent (Promega). The triplicated chemiluminescence were measured by SpectraMax Paradigm Multi-Mode Plate Reader (Molecular Devices) and normalized to corresponding β-actin level from a parallel western blot analysis of cell lysates. Results were represented as relative luminescence units (RLU) from three independent experiments.

[19] = system: AML PBMCs; assay: WST-1 viability and chemosensitivity of freshly isolated AML PBMCs; type: cell-based, human; conditions: TIFA silencing
Text: Hela, 293T, and HL-60 cell lines were obtained from Dr. Li-Jung Juan of Academia Sinica (Taipei, Taiwan, 2014), KG-1 cell line was obtained from Prof. Shih-Lan Hsu of Taichung Veterans General Hospital (Taichung, Taiwan, 2015), and the rest of cell lines were obtained from Dr. Shui-Tein Chen of Academia Sinica (Taipei, Taiwan, 2015). All cell lines were expanded and stored in liquid nitrogen when received. Original vials were thawed for these experiments and authenticated simultaneously by STR DNA fingerprinting using the Promega GenePrint® 10 System and analyzed by ABI PRISM 3730 GENETIC ANALYZER and GeneMapper® softeware. All resulting SI R profiles were matched with known ATCC fingerprints (ATCC.org). Maintenance of respective cell lines followed our previous protocols (20,27,28). 293T and HeLa cells were maintained in Dulbecco's modified Eagle's medium (DMEM, Gibco). […] All media were supplemented with 10% decomplemented fetal bovine serum (FBS, Gibco), […] L-glutamine (Gibco), 100 U/mL penicillin (Gibco) and 100 μg/mL streptomycin (Gibco). All cells were incubated in a humidified atmosphere at 37° C. with 5% CO2. To isolate human PBMCs, freshly acquired whole bloods were layered over Ficoll (GE healthcare) as previously described (28). Isolated primary cells were maintained according to a previously described protocol (29) and subjected to experimental analyses within two weeks. […]

[20] = biological target: T1, endogenous TIFA (Homo sapiens, UniProt Q96CG3); assay: Immunoprecipitation of lysates from transduced U937 cells; type: binding; conditions: U937 cells stably expressing Myc-tagged fragment; anti-Myc immunobeads, western blot
T1 construct: endogenous in cells; host or cells: U937 cells (retrovirally transduced with Myc-tagged TIFA fragments)
T1 sequence (Q96CG3 1-184): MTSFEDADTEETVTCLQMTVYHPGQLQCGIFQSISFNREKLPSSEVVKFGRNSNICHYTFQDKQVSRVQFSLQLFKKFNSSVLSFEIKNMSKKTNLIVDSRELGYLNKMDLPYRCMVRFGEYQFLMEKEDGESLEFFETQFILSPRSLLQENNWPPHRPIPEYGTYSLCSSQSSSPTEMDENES

Cc1cc(Nc2cc(N3CCN(C)CC3)nc(Sc3ccc(NC(=O)C4CC4)cc3)n2)n[nH]1 [VX680]
cell proliferation [1]: inhibited

CC(=O)[C@]1(O)Cc2c(O)c3c(c(O)c2[C@@H](O[C@H]2C[C@H](N)[C@H](O)[C@H](C)O2)C1)C(=O)c1ccccc1C3=O [idarubicin]
decrease in IC50 of the chemo drug under TIFA silencing [2]: ca. 50%

Nc1ccn([C@@H]2O[C@H](CO)[C@@H](O)[C@@H]2O)c(=O)n1 [cytarabine]
decrease in IC50 of the chemo drug under TIFA silencing [2]: ca. 50%
secretion of IL-6 [3]: suppressed
secretion of TNF-α, CXCL-1, and IL-8 [3]: promoted

COc1cc([C@@H]2c3cc4c(cc3[C@@H](O[C@@H]3O[C@@H]5CO[C@@H](C)O[C@H]5[C@H](O)[C@H]3O)[C@H]3COC(=O)[C@H]23)OCO4)cc(OC)c1O [Etoposide, etoposide]
fold change of cytotoxicity (cytotoxicity of TIFA silencing/cytotoxicity of non-silencing) [4]: 1.79 fold changes
fold change of cytotoxicity (cytotoxicity of TIFA silencing/cytotoxicity of non-silencing) [5]: 1.46 fold changes
fold change of cytotoxicity (cytotoxicity of TIFA silencing/cytotoxicity of non-silencing) [6]: 1.27 fold changes
fold change of cytotoxicity (cytotoxicity of TIFA silencing/cytotoxicity of non-silencing) [7]: 1.48 fold changes
fold change of cytotoxicity (cytotoxicity of TIFA silencing/cytotoxicity of non-silencing) [8]: 2.28 fold changes
fold change of cytotoxicity (cytotoxicity of TIFA silencing/cytotoxicity of non-silencing) [9]: 1.30 fold changes
fold change of cytotoxicity (cytotoxicity of TIFA silencing/cytotoxicity of non-silencing) [10]: 1.77 fold changes
fold change of cytotoxicity (cytotoxicity of TIFA silencing/cytotoxicity of non-silencing) [11]: 1.61 fold changes
fold change of cytotoxicity (cytotoxicity of TIFA silencing/cytotoxicity of non-silencing) [12]: 1.59 fold changes
decrease in IC50 of the chemo drug under TIFA silencing [2]: ca. 50%
fold change of cytotoxicity (cytotoxicity of TIFA silencing/cytotoxicity of non-silencing) [13]: 1.15 fold changes
fold change of cytotoxicity (cytotoxicity of TIFA silencing/cytotoxicity of non-silencing) [14]: 1.64 fold changes
fold change of cytotoxicity (cytotoxicity of TIFA silencing/cytotoxicity of non-silencing) [15]: 1.29 fold changes

CC1(C)CCC(c2ccc(Cl)cc2)=C(CN2CCN(c3ccc(C(=O)NS(=O)(=O)c4ccc(N[C@H](CCN5CCOCC5)CSc5ccccc5)c(S(=O)(=O)C(F)(F)F)c4)cc3)CC2)C1 [ABT-263]
cytotoxicity of cytarabine-treated U937 cells [16]: enhanced the cytotoxicity

etanercept
cytotoxicity of cytarabine-treated U937 cells [16]: enhanced the cytotoxicity

5′-UCAGGACAAACAGGUUUCCCGAGUU-3′ [TIFA siRNA]
growth of AML cell lines [17]: attenuates the growth
cell proliferation [1]: inhibited
elevation of activated NF-κB, phosphorylated IκK and IκB, and NF-κB-driven luciferase activity ([18]; overexpression of Aurora A (293T) or TNF-α treatment (U937), silencing of TIFA): negated
growth of AML PBMCs ([19]; WST-1 time course): growth retardation
chemosensitivities of patient-derived PBMCs ([19]; chemo drug treatments, WST-1): consistently promoted chemosensitivities

CNC(=O)c1cc(Oc2ccc(NC(=O)Nc3ccc(Cl)c(C(F)(F)F)c3)cc2)ccn1 [Sorafenib, sorafenib]
fold change of cytotoxicity (cytotoxicity of TIFA silencing/cytotoxicity of non-silencing) [9]: 1.47 fold changes

CC(C)C[C@H](NC(=O)[C@H](Cc1ccccc1)NC(=O)c1cnccn1)B(O)O [bortezomib]
cytotoxicity of cytarabine-treated U937 cells [16]: enhanced the cytotoxicity

B1: F2F3: dominant-negative TIFA fragment: dimerization-core (F2) plus TRAF6/TRAF2 interacting segment (F3), Myc-tagged, expressed by retroviral transduction (protein)
chain: VVKFGRNSNICHYTFQDKQVSRVQFSLQLFKKFNSSVLSFEIKNMSKKTNLIVDSRELGYLNKMDLPYRCMVRFGEYQFLMEKEDGESLEFFETQFILSPRSLLQENNWPPHRPIPEYGTYSLCSSQSSSPTEMDENES
modifications: left off: small tags and cut ends
pull down of endogenous TIFA [20]: able to pull down endogenous TIFA
TNF-α-dependent NF-κB activation and elevations of NF-κB signaling factors [18]: attenuated

B2: F1F2: dominant-negative TIFA fragment: Thr9 segment (F1) plus dimerization-core (F2), Myc-tagged, expressed by retroviral transduction (protein)
chain: MTSFEDADTEETVTCLQMTVYHPGQLQCGIFQSISFNREKLPSSEVVKFGRNSNICHYTFQDKQVSRVQFSLQLFKKFNSSVLSFEIKNMSKKTNLIVDSREL
modifications: left off: small tags and cut ends
notes: dominant-negative TIFA fragment: Thr9 segment (F1) plus dimerization-core (F2), Myc-tagged, expressed by retroviral transduction
pull down of endogenous TIFA [20]: able to pull down endogenous TIFA
TNF-α-dependent NF-κB activation and elevations of NF-κB signaling factors [18]: attenuated
